Test results reported in patent US9518060B2, “Substituted pyrrolo[3,4-c]pyrazoles as PKC kinase inhibitors” (PFIZER INC., priority 2007, dated 2016).
Structures can show the parent of a compound that is named as a salt.

Target: Protein Kinase C beta 2 (PKCβII) (Homo sapiens (Human), UniProt P05771)
Assay: PKCβII coupled spectrophotometric kinase assay (PK/LDH, NADH absorbance at 340 nm)
Format: biochemical
Settings: apparent Ki, ATP competitive inhibition model (Morrison equation); 0.1 mM ATP, 5 nM PKC, 30° C.; read-out: Ki app
Description: Protein Kinase C beta 2 (PKCβII) catalyzes the production of ADP from ATP that accompanies the phosphoryl transfer to the PKC Pseudosubstrate peptide (A→S, RFARKGSLRQKNV). This transfer is coupled to the oxidation of β-NADH through the activities of Pyruvate Kinase (PK) and Lactate Dehydrogenase (LDH). β-NADH conversion to NAD+ is monitored by the decrease in absorbance at 340 nm (e=6.22 cm^−1 mM^−1) using a Molecular Devices SPECTRA max PLUS spectrophotometer.
A typical assay was carried out on a 96-well, clear microtiter plate in a Molecular Devices spectrophotometer for 20 minutes at 30° C. in 0.1 mL of assay buffer containing 50 mM HEPES, pH 7.4, 5 nM PKC, 23 units of pyruvate kinase, 33 units of lactate dehydrogenase, 0.15 mM peptide, 0.1 mM ATP, 1 mM DTT, 4 mM PEP, 8 mM MgCl2, 0.3 mM NADH, 60 mM CaCl2, 10 mg/mL PS, 50 ng/mL PMA, 7.5% DMSO and from about 10,000 nM to 0.169 nM compound inhibitor. Stock solutions of 3-sn-phosphatidyl-L-serine (PS) and phorbol-12-myristate-13-acetate (PMA) were sonicated for 30 seconds just prior to addition to assay buffer and assays were initiated by the addition of 100 μM ATP.
Steady-state kinetic parameters for the bi-bi kinase reaction were determined at saturating phospho-acceptor peptide substrate concentration (0.15 mM) by fitting initial velocity data to the Michaelis-Menten equation, v=Vmax[S]/(KM+[S]) where v is the measured initial velocity, Vmax is the maximal enzyme velocity, [S] is the ATP substrate concentration, and KM is the Michealis constant for ATP. Enzyme turnover values (kcat) were calculated according to […], where [E] is the total enzyme concentration. Enzyme inhibition constants (apparent Ki values) were determined by fitting initial velocities at variable inhibitor concentrations to a model for ATP competitive inhibition based on the Morrison equation). Morrison, J. F., Biochim. Biophys Acta 185: 269-286 (1969).

Protein Kinase C beta 2 (PKCβII), sequence (P05771 other isoform, or with tags, fused parts or gaps): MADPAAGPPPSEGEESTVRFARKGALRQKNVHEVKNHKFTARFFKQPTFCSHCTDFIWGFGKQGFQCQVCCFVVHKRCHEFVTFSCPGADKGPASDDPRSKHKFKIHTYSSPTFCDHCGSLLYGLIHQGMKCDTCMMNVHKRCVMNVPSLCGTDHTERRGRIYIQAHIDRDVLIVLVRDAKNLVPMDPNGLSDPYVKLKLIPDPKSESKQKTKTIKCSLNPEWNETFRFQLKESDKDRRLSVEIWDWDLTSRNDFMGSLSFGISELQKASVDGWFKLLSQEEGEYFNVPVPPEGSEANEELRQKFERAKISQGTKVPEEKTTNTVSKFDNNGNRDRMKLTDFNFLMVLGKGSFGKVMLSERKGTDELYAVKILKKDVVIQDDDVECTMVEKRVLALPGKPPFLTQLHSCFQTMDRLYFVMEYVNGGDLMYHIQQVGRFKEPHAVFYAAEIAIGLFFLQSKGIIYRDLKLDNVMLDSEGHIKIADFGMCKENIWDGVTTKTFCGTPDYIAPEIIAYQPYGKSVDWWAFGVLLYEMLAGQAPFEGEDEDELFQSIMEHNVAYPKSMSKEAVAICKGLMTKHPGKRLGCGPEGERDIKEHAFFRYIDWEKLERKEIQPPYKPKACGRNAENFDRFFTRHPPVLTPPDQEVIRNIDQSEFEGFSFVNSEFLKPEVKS

SMILES | Ki
CCNc1ncc(F)c(Nc2n[nH]c3c2CN(C(=O)N2C[C@@H](C)N(CCC(F)(F)F)C[C@@H]2C)C3(C)C)n1 [Example B5, N4-(5-{[(2S,5R)-2,5-dimethyl-4-(3,3,3-trifluoropropyl)piperazin-1-yl]carbonyl}-6,6-dimethyl-1,4,5,6-tetrahydropyrrolo[3,4-c]pyrazol-3-yl)-N2-ethyl-5-fluoropyrimidine-2,4-diamine] | 29.8 nM
C[C@@H]1CN(C(=O)N2Cc3c(Nc4ccnc(C#N)n4)n[nH]c3C2(C)C)[C@@H](C)CN1C [Example B6, 4-[(6,6-dimethyl-5-{[(2S,5R)-2,4,5-trimethylpiperazin-1-yl]carbonyl}-1,4,5,6-tetrahydropyrrolo[3,4-c]pyrazol-3-yl)amino]pyrimidine-2-carbonitrile] | 2.43 nM
CCNc1ncc(F)c(Nc2n[nH]c3c2CN(C(=O)C2(F)CCN(C)CC2)C3(C)C)n1 [Example C1, N^2-ethyl-5-fluoro-N^4-{5-[(4-fluoro-1-methylpiperidin-4-yl)carbonyl]-6,6-dimethyl-1,4,5,6-tetrahydropyrrolo[3,4-c]pyrazol-3-yl}pyrimidine-2,4-diamine] | 33.4 nM
CCc1ncc(F)c(Nc2n[nH]c3c2CN(C(=O)N2CC(C)(C)N(C)C[C@@H]2C)C3(C)C)n1 [Example D1, N-(2-ethyl-5-fluoropyrimidin-4-yl)-6,6-dimethyl-5-{[(2S)-2,4,5,5-tetramethylpiperazin-1-yl]carbonyl}-1,4,5,6-tetrahydropyrrolo[3,4-c]pyrazol-3-amine] | 5.43 nM
CCc1ncc(F)c(Nc2n[nH]c3c2CN(C(=O)N2C[C@@H](C)N(CCCOC)C[C@@H]2C)C3(C)C)n1 [Example E2, N-(2-ethyl-5-fluoropyrimidin-4-yl)-5-{[(2S,5R)-4-(3-methoxypropyl)-2,5-dimethylpiperazin-1-yl]carbonyl}-6,6-dimethyl-1,4,5,6-tetrahydropyrrolo[3,4-c]pyrazol-3-amine] | 1.64 nM
CCOc1nccc(Nc2n[nH]c3c2CN(C(=O)N2C[C@@H](C)N(C)C[C@@H]2C)C3(C)C)n1 [Example E3, N-(2-ethoxypyrimidin-4-yl)-6,6-dimethyl-5-{[(2S,5R)-2,4,5-trimethylpiperazin-1-yl]carbonyl}-1,4,5,6-tetrahydropyrrolo[3,4-c]pyrazol-3-amine] | 13.1 nM
CCc1ncc(F)c(Nc2n[nH]c3c2CN(C(=O)N2C[C@@H](C)N(CCC(F)(F)F)C[C@@H]2C)C3(C)C)n1 [Example E4, 5-{[(2S,5R)-2,5-dimethyl-4-(3,3,3-trifluoropropyl)piperazin-1-yl]carbonyl}-N-(2-ethyl-5-fluoropyrimidin-4-yl)-6,6-dimethyl-1,4,5,6-tetrahydropyrrolo[3,4-c]pyrazol-3-amine] | 31.5 nM
CCc1ncc(F)c(Nc2n[nH]c3c2CN(C(=O)N2CC(CCO)N(C)C[C@@H]2C)C3(C)C)n1 (stereo partly drawn) [Example E5, 2-((5S)-4-{[3-[(2-ethyl-5-fluoropyrimidin-4-yl)amino]-6,6-dimethyl-4,6-dihydropyrrolo[3,4-c]pyrazol-5(1H)-yl]carbonyl}-1,5-dimethylpiperazin-2-yl)ethanol] | < 10 nM
Cc1ncc(F)c(Nc2n[nH]c3c2CN(C(=O)C2(F)CCN(C)CC2)C3(C)C)n1 [Example F1, 5-[(4-fluoro-1-methylpiperidin-4-yl)carbonyl]-N-(5-fluoro-2-methylpyrimidin-4-yl)-6,6-dimethyl-1,4,5,6-tetrahydropyrrolo[3,4-c]pyrazol-3-amine] | 39.9 nM
CCc1ncc(F)c(Nc2n[nH]c3c2CN(C(=O)C2(F)CCN(C)CC2)C3(C)C)n1 [Example G1, N-(2-ethyl-5-fluoropyrimidin-4-yl)-5-[(4-fluoro-1-methylpiperidin-4-yl)carbonyl]-6,6-dimethyl-1,4,5,6-tetrahydropyrrolo[3,4-c]pyrazol-3-amine] | 25.4 nM
CC[C@H]1CN(C(=O)N2Cc3c(Nc4nc(C)ncc4F)n[nH]c3C2(C)C)CCN1C [Example H4, 5-{[(3S)-3-ethyl-4-methylpiperazin-1-yl]carbonyl}-N-(5-fluoro-2-methylpyrimidin-4-yl)-6,6-dimethyl-1,4,5,6-tetrahydropyrrolo[3,4-c]pyrazol-3-amine] | 86 nM
CC[C@@H]1CN(C(=O)N2Cc3c(Nc4nc(C)ncc4F)n[nH]c3C2(C)C)CCN1C [Example H5, 5-{[(3R)-3-ethyl-4-methylpiperazin-1-yl]carbonyl}-N-(5-fluoro-2-methylpyrimidin-4-yl)-6,6-dimethyl-1,4,5,6-tetrahydropyrrolo[3,4-c]pyrazol-3-amine] | 50.8 nM
CCCc1ncc(F)c(Nc2n[nH]c3c2CN(C(=O)N2CC(C)(C)N(C)C[C@@H]2C)C3(C)C)n1 [Example I1, N-(5-fluoro-2-propylpyrimidin-4-yl)-6,6-dimethyl-5-{[(2S)-2,4,5,5-tetramethylpiperazin-1-yl]carbonyl}-1,4,5,6-tetrahydropyrrolo[3,4-c]pyrazol-3-amine] | 1.73 nM
CC(C)c1ncc(F)c(Nc2n[nH]c3c2CN(C(=O)N2CC(C)(C)N(C)C[C@@H]2C)C3(C)C)n1 [Example I2, N-(5-fluoro-2-isopropylpyrimidin-4-yl)-6,6-dimethyl-5-{[(2S)-2,4,5,5-tetramethylpiperazin-1-yl]carbonyl}-1,4,5,6-tetrahydropyrrolo[3,4-c]pyrazol-3-amine] | 3.67 nM
Cc1ccc(F)c(Nc2n[nH]c3c2CN(C(=O)C2(F)CCN(C)CC2)C3(C)C)n1 [Example J1, 5-[(4-fluoro-1-methylpiperidin-4-yl)carbonyl]-N-(3-fluoro-6-methylpyridin-2-yl)-6,6-dimethyl-1,4,5,6-tetrahydropyrrolo[3,4-c]pyrazol-3-amine] | 21.2 nM

More lines, now with the values ahead:

Ki | SMILES
20.1 nM | C[C@@H]1CN(C(=O)N2Cc3c(Nc4nc(N5CCOCC5)ncc4F)n[nH]c3C2(C)C)[C@@H](C)CN1C [Example B7, N-(5-fluoro-2-morpholin-4-ylpyrimidin-4-yl)-6,6-dimethyl-5-{[(2S,5R)-2,4,5-trimethylpiperazin-1-yl]carbonyl}-1,4,5,6-tetrahydropyrrolo[3,4-c]pyrazol-3-amine]
10.5 nM | CCc1ncc(F)c(Nc2n[nH]c3c2CN(C(=O)N2C[C@@H](C)N(C)C[C@@H]2C)C3(C)C)n1 [Example E1, N-(2-ethyl-5-fluoropyrimidin-4-yl)-6,6-dimethyl-5-{[(2S,5R)-2,4,5-trimethylpiperazin-1-yl]carbonyl}-1,4,5,6-tetrahydropyrrolo[3,4-c]pyrazol-3-amine acetate salt]
39.8 nM | Cc1ncc(F)c(Nc2n[nH]c3c2CN(C(=O)N2C[C@@H]4CCCN4C[C@@H]2C)C3(C)C)n1 [Example H1, N-(5-fluoro-2-methylpyrimidin-4-yl)-6,6-dimethyl-5-{[(3S,8aS)-3-methylhexahydropyrrolo[1,2-a]pyrazin-2(1H)-yl]carbonyl}-1,4,5,6-tetrahydropyrrolo[3,4-c]pyrazol-3-amine]
18.1 nM | Cc1ncc(F)c(Nc2n[nH]c3c2CN(C(=O)N2C[C@@H](C)N(C)C[C@@H]2C)C3(C)C)n1 [Example H2, N-(5-fluoro-2-methylpyrimidin-4-yl)-6,6-dimethyl-5-{[(2S,5R)-2,4,5-trimethylpiperazin-1-yl]carbonyl}-1,4,5,6-tetrahydropyrrolo[3,4-c]pyrazol-3-amine]
7.21 nM | Cc1ncc(F)c(Nc2n[nH]c3c2CN(C(=O)N2CC(C)(C)N(C)C[C@@H]2C)C3(C)C)n1 [Example H3, N-(5-fluoro-2-methylpyrimidin-4-yl)-6,6-dimethyl-5-{[(2S)-2,4,5,5-tetramethylpiperazin-1-yl]carbonyl}-1,4,5,6-tetrahydropyrrolo[3,4-c]pyrazol-3-amine]
14.9 nM | Cc1ncc(F)c(Nc2n[nH]c3c2CN(C(=O)N2C[C@@H](C)N(CC4CCOCC4)C[C@@H]2C)C3(C)C)n1 [Example H6, 5-{[(2S,5R)-2,5-dimethyl-4-(tetrahydro-2H-pyran-4-ylmethyl)piperazin-1-yl]carbonyl}-N-(5-fluoro-2-methylpyrimidin-4-yl)-6,6-dimethyl-1,4,5,6-tetrahydropyrrolo[3,4-c]pyrazol-3-amine]
22 nM | Cc1ncc(F)c(Nc2n[nH]c3c2CN(C(=O)N2C[C@@H](C)N(C4CCOCC4)C[C@@H]2C)C3(C)C)n1 [Example H7, 5-{[(2S,5R)-2,5-dimethyl-4-(tetrahydro-2H-pyran-4-yl)piperazin-1-yl]carbonyl}-N-(5-fluoro-2-methylpyrimidin-4-yl)-6,6-dimethyl-1,4,5,6-tetrahydropyrrolo[3,4-c]pyrazol-3-amine]
157 nM | Cc1ncc(F)c(Nc2n[nH]c3c2CN(C(=O)N2C[C@@H](C)N(CC4(O)CCOCC4)C[C@@H]2C)C3(C)C)n1 [Example H8, 4-[((2R,5S)-4-{[3-[(5-fluoro-2-methylpyrimidin-4-yl)amino]-6,6-dimethyl-4,6-dihydropyrrolo[3,4-c]pyrazol-5(1H)-yl]carbonyl}-2,5-dimethylpiperazin-1-yl)methyl]tetrahydro-2H-pyran-4-ol]
